Experiments:
Male ICR mice = assay: Antagonism of test compounds against general anesthesia induced by general anesthetics (total anesthesia time, loss to recovery of righting reflex); assay type: in vivo
Experimental: The preparation method: A suitable amount of the compound to be tested was weighed, to which was added a suitable amount of medium and long chain fat emulsion injection with a pipette, and thus a 50 mmol/L solution of the test compound was prepared. After filtering with a 0.22 μm microporous membrane, the solution was immediately used.
Male ICR mice weighing 25 g±1 g were randomly divided into 8 groups, with 8 mice in each group. […] After maintaining the disappearance of the mouse righting reflex for 30 seconds, the solution of each test compound (50 mg/kg, using medium and long chain fat emulsion injection as solvent) or equal volume of medium and long chain fat emulsion injection was respectively injected, and the total anesthesia time of the mice was observed and recorded. Among them, the total anesthesia time refers to the time from the disappearance of the mouse righting reflex to the recovery of the mouse righting reflex.

male SD rats = assay: Antagonism of compounds against general anesthesia maintained by continuous infusion of propofol (anesthesia recovery/awakening time); assay type: in vivo; conditions: for The average of awakening time: SD rats
Experimental: The preparation method was the same as that of Example 1.
24 male SD rats with a body weight range of 250-300 g were randomly divided into 4 groups, with 6 rats in each group. Continuous anesthesia induction was performed using propofol (22.11 mg/kg, 1.5×EDO, and then maintained at a rate of 1 mg/(kg min) for 30 min. After drug withdrawal, compound 85 at doses of 10 mg/kg, 20 mg/kg, and 50 mg/kg, as well as 50 mg/kg of the test compound solutions (using medium and long chain fat emulsion injection as solvent) or equal volume of medium and long chain fat emulsion injection was immediately injected, respectively, and the anesthesia recovery time of the […] after stopping the medication was observed and recorded. Among them, the anesthesia recovery time refers to the time from the cessation of propofol infusion to the recovery of the righting reflex in mice.

[1] = Propofol 22.11 mg/kg (1.5×ED50) i.v. tail vein induction, test compound 50 mg/kg in fat emulsion injected after 30 s loss of righting reflex
[2] = test drug 50 mg/kg after withdrawal of propofol infusion (1 mg/(kg min) for 30 min)
[3] = Etomidate 4.48 mg/kg (2×ED50) i.v. tail vein induction, test compound 50 mg/kg in fat emulsion injected after 30 s loss of righting reflex
[4] = Ketamine induction (dose not given), test compound 50 mg/kg in fat emulsion
[5] = Remimazolam 57.34 mg/kg (1.5×ED50) i.v. tail vein induction, test compound 50 mg/kg in fat emulsion injected after 30 s loss of righting reflex

| SMILES | The average of total anesthesia time (Male ICR mice; [1]) | The average of awakening time (male SD rats; [2]) | The average of total anesthesia time (Male ICR mice; [3]) | The average of total anesthesia time (Male ICR mice; [5]) | also measured |
| --- | --- | --- | --- | --- | --- |
| CC12CCC(C(C(=O)O)C1=O)C2(C)C (stereo not drawn) [Compound 67] | 2.14 ± 0.32 min | 3.04 ± 0.18 min |  |  |  |
| CSC1C(=O)C2(C)CCC1C2(C)C (stereo not drawn) [Compound 68] | 4.05 ± 0.15 min |  | 2.11 ± 0.54 min |  |  |
| CC1(CBr)C2CCC1(CBr)C(=O)C2Br (stereo not drawn) [Compound 70] |  |  |  |  | The average of total anesthesia time (Male ICR mice; [4]): 3.49 ± 0.40 min |
| CC12CCC(CC1=O)C2(C)C (stereo not drawn) [Compound 85] | 0.47 ± 0.21 min | 0.36 ± 0.98 min | 0.46 ± 0.25 min | 0.45 ± 0.21 min | The average of total anesthesia time (Male ICR mice; [4]): 3.01 ± 0.45 min; Reversal of the anesthesia maintenance effect of continuous infusion of propofol (male SD rats; continuous propofol infusion, 10, 20, 50 mg/kg): could dose-dependently shorten the anesthesia recovery time of rats; The average of awakening time (male SD rats; test drug 10 mg/kg after withdrawal of propofol infusion (1 mg/(kg min) for 30 min)): 4.11 ± 1.22 min; The average of awakening time (male SD rats; test drug 20 mg/kg after withdrawal of propofol infusion (1 mg/(kg min) for 30 min)): 3.68 ± 1.12 min |
| CC12CCC(C(Br)C1=O)C2(C)C (stereo not drawn) [Compound 86] | 1.56 ± 0.21 min |  |  | 1.49 ± 0.62 min |  |
| CC12CCC(C(I)C1=O)C2(C)C (stereo not drawn) [Compound 87] |  |  | 1.56 ± 0.45 min | 0.84 ± 0.78 min |  |
| CC12CCC(C(=O)C1=O)C2(C)C (stereo not drawn) [Compound 104] |  |  |  |  | The average of total anesthesia time (Male ICR mice; [4]): 2.67 ± 0.30 min |
| CC1(Br)C(=O)C2(C)CCC1C2(C)C (stereo not drawn) [Compound 120] |  |  |  |  | The average of total anesthesia time (Male ICR mice; [4]): 3.72 ± 0.24 min |
| CC12CCC(CC1=O)C2(C)CBr (stereo not drawn) [Compound 130] | 1.79 ± 0.09 min | 3.41 ± 0.52 min |  |  |  |
| CC12CCC(CC1=O)C2(C)CI (stereo not drawn) [Compound 135] |  |  | 1.72 ± 0.50 min |  |  |
| CC12CCC(CC1=O)C2(C)CC(=O)O (stereo not drawn) [Compound 139] |  |  | 2.64 ± 0.89 min | 1.29 ± 0.63 min |  |
| CC12CCC(CC1=O)C2(C)CO (stereo not drawn) [Compound 140] | 4.13 ± 0.20 min |  | 2.05 ± 0.33 min | 1.16 ± 0.92 min |  |
| CC12CCC(CC1=O)C2(C)CBr (stereo not drawn) [Compound 150] | 1.26 ± 0.17 min |  |  |  |  |
| CC12CCC(CC1=O)C2(C)CO (stereo not drawn) [Compound 157] | 2.52 ± 0.21 min |  | 2.08 ± 0.32 min |  |  |
| CCC1(C)C2CCC1(C)C(=O)C2 (stereo not drawn) [Compound 163] | 1.51 ± 0.51 min | 1.33 ± 0.79 min | 2.17 ± 0.60 min | 0.77 ± 0.02 min |  |
| CC12CCC(C(Cl)C1=O)C2(C)C (stereo not drawn) [Compound 168] |  |  |  | 0.86 ± 0.42 min |  |
| CC1(C)[C@H]2CC[C@]1(C)C(=O)C2 [Compound 171] | 0.42 ± 0.32 min | 0.34 ± 0.89 min | 1.97 ± 0.07 min | 0.73 ± 0.57 min | The average of total anesthesia time (Male ICR mice; [4]): 3.64 ± 0.89 min |
| CC12CCC(CC1=O)C2(C)C(Cl)Br (stereo not drawn) [Compound 262] |  |  |  |  | The average of total anesthesia time (Male ICR mice; [4]): 3.92 ± 0.83 min |
| CC1(C)C2CCC1(CCl)C(=O)C2 (stereo not drawn) [Compound 269] | 2.15 ± 0.98 min | 3.29 ± 0.81 min |  | 1.39 ± 0.45 min |  |

| SMILES | The average of total anesthesia time (Male ICR mice; [1]) | The average of awakening time (male SD rats; [2]) | The average of total anesthesia time (Male ICR mice; [3]) | The average of total anesthesia time (Male ICR mice; [5]) | also measured |
| --- | --- | --- | --- | --- | --- |
| CC1(C)C2CCC1(CBr)C(=O)C2 (stereo not drawn) [Compound 270] | 2.49 ± 0.15 min |  | 2.50 ± 0.99 min | 1.01 ± 0.05 min |  |
| CC1(C)C2CCC1(CO)C(=O)C2 (stereo not drawn) [Compound 273] | 1.43 ± 0.43 min |  |  |  |  |
| CC12CCC(Br)(CC1=O)C2(C)C (stereo not drawn) [Compound 561] |  |  | 2.03 ± 0.61 min |  |  |
| CC12CCC(O)(CC1=O)C2(C)C (stereo not drawn) [Compound 563] | 2.62 ± 0.18 min |  |  |  |  |
| CC12CCC(F)(CC1=O)C2(C)C (stereo not drawn) [Compound 565] | 2.40 ± 0.89 min | 2.58 ± 0.56 min | 0.87 ± 0.93 min |  | The average of total anesthesia time (Male ICR mice; [4]): 3.46 ± 0.15 min |
| CC12CCC(CC(=O)O)(CC1=O)C2(C)C (stereo not drawn) [Compound 572] |  |  |  | 0.85 ± 0.37 min |  |
| CC1C(=O)CC2(C(C)C)CC12 (stereo not drawn) [Compound 580] | 3.12 ± 0.12 min | 2.76 ± 0.20 min | 1.36 ± 0.84 min | 0.69 ± 0.25 min |  |
| CC1C(=O)C2(C)CCC1(C)C2 (stereo not drawn) [Compound 581] | 2.22 ± 0.27 min | 4.66 ± 0.60 min | 1.07 ± 0.32 min | 1.32 ± 0.31 min |  |
| CC1CCC(C(C)C)CC1=O (stereo not drawn) [Compound 582] | 1.39 ± 0.08 min | 0.96 ± 0.23 min | 1.27 ± 0.83 min | 1.49 ± 0.21 min |  |
| CC12CC(Br)C(CC1=O)C2(C)C (stereo not drawn) [Compound 608] | 4.08 ± 0.34 min |  |  |  |  |
| CC12CC(Cl)C(CC1=O)C2(C)C (stereo not drawn) [Compound 610] |  | 2.72 ± 0.36 min |  | 1.32 ± 0.06 min |  |
| CC12CC(O)C(CC1=O)C2(C)C (stereo not drawn) [Compound 616] | 2.70 ± 0.63 min |  | 1.15 ± 0.83 min | 0.94 ± 0.30 min |  |
| CC(=O)OC1CC2(C)C(=O)CC1C2(C)C (stereo not drawn) [Compound 626] |  |  | 2.05 ± 0.54 min |  |  |
| CC1(C)C2CC(=O)C1(C)C(Cl)C2 (stereo not drawn) [Compound 631] | 3.30 ± 0.79 min | 2.85 ± 0.58 min |  | 0.70 ± 0.32 min |  |
| CC1(C)C2CC(=O)C1(C)C(Br)C2 (stereo not drawn) [Compound 633] | 2.04 ± 0.63 min | 2.64 ± 0.19 min | 0.96 ± 0.92 min |  | The average of total anesthesia time (Male ICR mice; [4]): 3.35 ± 0.90 min |
| CC1(C)C2CC(=O)C1(C)C(Cl)(Br)C2 (stereo not drawn) [Compound 643] |  | 1.01 ± 0.29 min | 2.80 ± 0.67 min |  |  |
| CC1CC2CC(=O)C1(C)C2(C)C (stereo not drawn) [Compound 661] | 2.89 ± 0.64 min | 2.39 ± 0.75 min |  | 0.55 ± 0.76 min |  |
| [2H]C1C(=O)C2(C)CCC1C2(C)C (stereo not drawn) [Compound 664] |  |  |  |  | The average of total anesthesia time (Male ICR mice; [4]): 3.20 ± 0.77 min |

Reference: patent US20240041795A1, “Cyclic Ketone Compounds and Applications Thereof” (priority 2021, published 2024)
